Test results taken from patent publication US20050065064A1, “Identification of allosteric peptide agonists of CXCR4” (priority 2002, published 2005).
Where a SMILES comes first, the peptide text is derived from it.

Key:
[1] = target: T1, CXCR4 (Homo sapiens, UniProt P61073); assay: β-galactosidase assay in yeast expressing CXCR4 (FUS1-lacZ reporter); format: cell-based; set-up: The plasmid Cp4181 contains the CXCR4 gene under the control of the constitutive phosphoglycerate kinase (PGK1) promoter; expressed in transfected cells; host or cells: Saccharomyces cerevisiae CY12946 derivatives YAS2 / YAS3 (plasmid Cp4181)
From the text: The initial S. cerevisiae strain was CY12946 (MATα FUS1p-HIS3 GPA1Gαi2(5) canI farIΔI442 his3 leu2 sst2Δ2 ste14::trp1::LYS2 ste3Δ1156 tbt1-1 trp1 ura3) (23). Except for the specific chimeric Ga subunit expressed, CY12946 is genetically similar to CY1141, reported in Klein et al. (18), with two differences. First, the two strains express different Gα subunits. Specifically, CY12946 expresses a chimeric Gα subunit (GPA1Gαi2(5)) in which the C-terminal 5 amino acids of the yeast Ga subunit, GPA1, are replaced by the C-terminal 5 residues of Gαi2. In contrast, as described by Klein et al. (18), CY1141 expresses a chimeric Ga subunit (GPA1(41)Gαi2) in which the N-terminal 33 residues of Gαi2 are replaced by the 41 N-terminal residues of GPA1. We have used CY12946 in the current report because GPA1Gαi2(5) is more efficient than GPA1(41)Gαi2 in coupling CXCR4 to the pheromone response pathway. The use of GPA1Gαi2(5) necessitated deletion of SST2, which down-regulates the pheromone response pathway by accelerating the GTPase activity of GPA1. Thus, the second difference between CY12946 and CY1141 is the presence of an sst2 deletion allele in CY12946. All plasmids were 2μ-derived and contained a REP3 element for autonomous replication in S. cerevisiae and AmPR for selection in Escherichia coli. The plasmid Cp4181 contains the CXCR4 gene under the control of the constitutive phosphoglycerate kinase (PGK1) promoter and a LEU2 selectable marker. […] It also contains the TRP1 selectable marker. Cp6160 expresses full length wild-type SDF-1α in yeast under the control of the constitutive alcohol dehydrogenase (ADH1) promoter. The α-factor signal sequence is cloned at the 5′-end of the SDF sequence to allow secretion of the mature polypeptide. The vector also has the URA3 selectable marker allowing transformed cells to grow in media deficient in uracil. For expression of the 17-mer peptide library, Cp6293 was used. This URA3+plasmid was derived from Cp6160 and contains a frameshift in the SDF-1α sequence so that no functional protein is expressed unless an insert is appropriately cloned. The cDNA coding for 17-mer peptides was cloned using the restriction sites HindIII and Acc65I, which also results in the secretion of the mature peptide. S. cerevisiae strains YAS1, YAS2, YAS3 were constructed by transforming CY12946 with Cp1584, Cp1584/Cp4181 and Cp1584/Cp4181/Cp6160, respectively.
The liquid beta-galactosidase assays were performed essentially as described in (24) or (27) with the following modification. After growth in the appropriate medium, 5 ml of cells displaying the agonist phenotype were centrifuged (2500 rpm for 5 min) and resuspended in 0.5 ml as described (28).
To identify allosteric peptide agonists or modulators of CXCR4, it was necessary to establish an assay that could isolate molecules with the desired properties from a large peptide library. The screen that was used consisted of two steps. The first step was to isolate peptide sequences from a synthetic cDNA library that would allow cells to grow only after activation of CXCR4. A second step was required that would segregate agonists that bind to the native active site from those that bind to allosteric sites. This step involved an agonist assay in the presence of a receptor antagonist. A number of genetic modifications made to S. cerevisiae allowed it to be used for monitoring the interactions of peptides or proteins with CXCR4 (FIG. 1). […]
Target sequence in this assay (P61073 whole entry): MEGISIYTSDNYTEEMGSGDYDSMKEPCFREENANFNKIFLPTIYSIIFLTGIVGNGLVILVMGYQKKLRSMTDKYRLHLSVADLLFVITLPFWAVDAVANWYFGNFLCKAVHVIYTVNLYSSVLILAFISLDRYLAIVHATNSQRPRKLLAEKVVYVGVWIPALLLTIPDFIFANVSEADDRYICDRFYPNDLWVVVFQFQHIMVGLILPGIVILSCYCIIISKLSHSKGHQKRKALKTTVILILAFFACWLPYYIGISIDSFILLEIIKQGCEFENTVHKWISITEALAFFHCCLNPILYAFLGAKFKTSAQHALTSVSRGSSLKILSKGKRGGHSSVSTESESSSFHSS

[2] = target: T1, CXCR4; assay: Yeast growth / colony formation in histidine-deficient medium (FUS1-HIS3); format: cell-based; set-up: The plasmid Cp4181 contains the CXCR4 gene under the control of the constitutive phosphoglycerate kinase (PGK1) promoter; expressed in transfected cells; host or cells: Saccharomyces cerevisiae CY12946 derivatives YAS2 / YAS3 (plasmid Cp4181)
Description: All basic media were prepared essentially as described (24). In cases where plasmid selection was necessary, media that lacked uracil, leucine, or tryptophan or an appropriate combination of these nutrients were employed. Library screening was performed in plates that lacked histidine and contained 3-amino-1,2,4-triazole (Sigma), which suppresses the basal level of histidine biosynthesis due to the activity of the FUS1 promoter.
A number of genes for biosynthetic enzymes have been mutated to allow selection of the corresponding marker on a plasmid transformed into the yeast strain. The genomic HIS3 gene, coding for an enzyme essential for the biosynthesis of histidine, has been disrupted by an insertion. The wild-type HIS3 gene has been placed under the control of the pheromone-responsive FUS1 promoter; as a result activation of CXCR4 enables cells to grow in media lacking histidine. To reduce false positives due to any basal activity of FUS1-HIS3,3-amino-1,2,4-triazole, an inhibitor of the enzyme coded by HIS3, is present at low levels in the media during agonist selection. […] Furthermore, the CXCR4 antagonist AMD3100 (34) inhibited YAS2 colony formation (data not shown) and β-galactosidase activity in response to SDF-1α (FIG. 2C).
Target sequence in this assay (P61073 whole entry): as above

[3] = system: HIV-1; conditions: in vitro; reference (58); cited from earlier work
[4] = references (55), (56); cited from earlier work
[5] = system: CCRF-CEM cells; assay: Chemotaxis assay (transwell) on CCRF-CEM cells; format: cell-based, human
Description: The CCRF-CEM acute lymphoblastic leukemia cell line was previously shown to express CXCR4 and to migrate in response to SDF-1α (31). The procedure involved cells that were ˜70-80% confluent and were centrifuged at 1000 rpm for 5 min and resuspended at a concentration of ˜10^7 cells/ml. The transwell system (Corning-Costar^R) was used for quantifying the chemotactic response. Six hundred μl of solution with different concentrations of a CXCR4 agonist were added to the bottom of the wells of 24-well culture plates. One hundred μl of the cell suspension was aliquoted in the transwell cups and inserted in the wells. The bottom of the cups is layered with a membrane that has a 5 μm pore size and allows cell movement towards the higher concentration of chemoattractant. The cells were incubated for 2h at 37° C., after which the migrated cells were collected and counted with an electronic particle counter (Coulter^R). In cases where the effect of neutralization by CXCR4 monoclonal antibodies or antagonists was examined, the inhibitor was added to the upper compartment along with the cells.

[6] = target: T1, CXCR4; assay: Flow cytometry of CXCR4 surface levels (12G5 indirect staining); format: cell-based
Description: Flow cytometric analysis of cell subpopulations was performed using a FACS Vantage flow cytometer (Becton-Dickinson Immunocytometry Systems, San Jose, Calif.) for detection of CXCR4 surface expression with the 12G5 monoclonal antibody. An indirect staining protocol was used. Briefly, after a 90 min incubation with various agents, the cells were washed and resuspended in PBS. Nonspecific (Fc-mediated) binding was blocked using purified rat IgG. The primary antibody (12G5, a mouse IgG2a antibody) was added at 1 μg/ml for 45 min. After centrifugation the cells were resuspended in PBS and the secondary antibody (FITC-linked rat anti-mouse IgG2a) was added at 10 μg/ml for 45 min. The cells were fixed with 2% formaldehyde (in PBS) and used within 2 days for data acquisition. Mouse IgG2a was used as an isotype control. For the fluorescence measurements the cells were excited at 488 nm. The FITC fluorescence was collected through a 530/30 nm band pass filter. A minimum of 15,000 cells were examined for each sample. Analysis of data was performed using the CellQuest software (Becton-Dickinson).
Target sequence in this assay (P61073 whole entry): as above

[7] = system: CXCR4; assay: β-galactosidase assay in yeast expressing CXCR4 (FUS1-lacZ reporter); format: cell-based, human; conditions: yeast lacking CXCR4; data not shown
From the text: The initial S. cerevisiae strain was CY12946 (MATα FUS1p-HIS3 GPA1Gαi2(5) canI farIΔI442 his3 leu2 sst2Δ2 ste14::trp1::LYS2 ste3Δ1156 tbt1-1 trp1 ura3) (23). Except for the specific chimeric Ga subunit expressed, CY12946 is genetically similar to CY1141, reported in Klein et al. (18), with two differences. First, the two strains express different Gα subunits. Specifically, CY12946 expresses a chimeric Gα subunit (GPA1Gαi2(5)) in which the C-terminal 5 amino acids of the yeast Ga subunit, GPA1, are replaced by the C-terminal 5 residues of Gαi2. In contrast, as described by Klein et al. (18), CY1141 expresses a chimeric Ga subunit (GPA1(41)Gαi2) in which the N-terminal 33 residues of Gαi2 are replaced by the 41 N-terminal residues of GPA1. We have used CY12946 in the current report because GPA1Gαi2(5) is more efficient than GPA1(41)Gαi2 in coupling CXCR4 to the pheromone response pathway. The use of GPA1Gαi2(5) necessitated deletion of SST2, which down-regulates the pheromone response pathway by accelerating the GTPase activity of GPA1. Thus, the second difference between CY12946 and CY1141 is the presence of an sst2 deletion allele in CY12946. All plasmids were 2μ-derived and contained a REP3 element for autonomous replication in S. cerevisiae and AmPR for selection in Escherichia coli. […]

[8] = target: T1, CXCR4; conditions: reference (31); cited from earlier work
Target sequence in this assay (P61073 whole entry, species assumed): as the sequence (P61073 whole entry) above

Which “effect on basal level of the pheromone-responsive Fus1 promoter” value ([1]; AMD3100 1 μM (FIG. 2C)) does the source give for `c1cc(CN2CCCNCCNCCCNCC2)ccc1CN1CCCNCCNCCCNCC1` [AMD3100, reference compound] here?
The value was “does not effect the basal level”.

What about the “inhibition of β-galactosidase activity in response to SDF-1α” value ([1]; AMD3100 1 μM, SDF-1α 100 nM (FIG. 2C)) of the same molecule?
Its value is “inhibited”.

And the YAS2 colony formation ([2]; in response to SDF-1α, data not shown)?
The YAS2 colony formation was “inhibited”.

And the “interaction between T-20 and AMD3100” value [3]?
The value was “strong in vitro synergy”.

What about the “toxicity / adverse effects in clinical trials” value [4] of the same molecule?
Its value is “cardiac toxicity”.

Which results are given for `CC(C)C[C@H](NC(=O)[C@H](CO)NC(=O)[C@H](C)N)C(=O)N[C@@H](Cc1c[nH]c2ccccc12)C(=O)N[C@@H](CC(C)C)C(=O)N[C@@H](CO)C(=O)N[C@@H](Cc1ccc(O)cc1)C(=O)N[C@@H](CCCNC(=N)N)C(=O)N[C@@H](CS)C(=O)N1CCC[C@H]1C(=O)N[C@@H](CS)C(=O)N[C@@H](CCCNC(=N)N)C(=O)N[C@@H](Cc1ccccc1)C(=O)N[C@@H](Cc1ccccc1)C(=O)N[C@@H](CCC(=O)O)C(=O)N[C@@H](CO)C(=O)N[C@@H](Cc1c[nH]cn1)C(=O)O` [ASLW] (H-ASLWLSYRCPCRFFESH-OH; N-terminus and C-terminus assumed)?
resistance of β-galactosidase activity to AMD3100 ([1]; peptide-expressing yeast clones): resistance to AMD3100; β-galactosidase activity on endogenous expression of the peptide ([1]; yeast strains with or without CXCR4 (FIG. 3)): significant increase of β-galactosidase activity only in the strain that co-expresses CXCR4; agonist character in chemotaxis (chemotactic index relative to SDF-Fc) ([5]; CCRF-CEM cells): superagonist activity; EC50 ([5]; CCRF-CEM cells (FIG. 4A, 4B), read-out: apparent EC50, chemotaxis): > 60000 nM; chemotactic activity combined with SDF-Fc ([5]; CCRF-CEM cells (FIG. 4D)): approximately additive; chemotaxis in the presence of the two peptide agonists ASLW and RSVM ([5]; CCRF-CEM cells (FIG. 4E)): additive; effect of AMD3100 on chemotactic activity of the agonist ([5]; CCRF-CEM cells, AMD3100 up to 100 μg/ml (~115 μM)): Strong resistance to inhibition; effect of T140 on chemotactic activity of the agonist ([5]; CCRF-CEM cells, T140 up to concentrations comparable to the agonists): does not inhibit; effect of antibody 44717.111 on chemotactic activity of the agonist ([5]; CCRF-CEM cells, up to 50 μg/ml for the peptides, ten-fold lower for SDF-Fc): neither RSVM- nor ASLW-mediated chemotactic activity is significantly affected; effect on CXCR4 levels on the cell surface ([6]; 90 min incubation, SDF-Fc 1 μM, RSVM 200 μM, ASLW 100 μM (FIG. 8A-C)): only aminor decrease; concentration dependence of the effect on CXCR4 surface levels ([6]; FIG. 8D, 8E): No significant concentration-dependent response

Which results are given for SDF-1α?
response of strain without the receptor (YAS 1) [7]: does not respond; induction of β-galactosidase activity ([1]; HIS3-/CXCR4+ yeast with FUS1-lacZ, SDF-1α 100 nM, D-SDF-1α 100 nM, 14-mer 1 μM (FIG. 2B)): induces an increase of β-galactosidase activity; growth in the absence of histidine ([2]; endogenously expressed SDF-1α, strain expressing CXCR4 (FIG. 2A)): allows the strain expressing CXCR4 to grow in the absence of this amino acid; EC50 [8]: 1 to 10 nM
